From a melting point compilation (Tetko et al.; mined from patent text by program, amines drawn as free bases though some values may be those of a salt) come the findings set out here.

SMILES strings stand for the structures.

As for `CN1Cc2c(CCl)ncn2-c2ccccc2C1=O`, the melting point lay in the range of 277 to 280 °C. Under `CCC(CNC(=O)c1cc(C#N)c(Cl)cc1OC)NC(C)C` (stereo not given) stands 103 to 105 °C; under `CCOC(=O)c1c(O)c2cccnc2n(CCc2ccccc2)c1=O`, 121 to 123 °C; under `CCOC(=O)C1(S(=O)(=O)c2ccc(OC)cc2)CCN(Cc2ccc(-c3cccs3)cc2)CC1`, 130 °C. Molecule `Cc1nc2cccc3n(CCCNS(C)(=O)=O)c(=O)c1n23` returned a melting point of 184 to 185 °C. Take `CC(C)(C)NC(=O)[C@@H]1C[C@H](N2CCOCC2)CN1C(=O)[C@@H](O)[C@H](Cc1ccccc1)NC(=O)[C@H](CC(N)=O)NC(=O)OCc1ccccc1`: the melting point was 115 to 117 °C. `O=C(NN=Cc1c(O)ccc2ccccc12)c1cc2ccccc2cc1O` returned a melting point above 300 °C. The figure for `COc1cccc2c1[C@@H](Oc1cc(C(=O)N(C)C)cn3c(C)c(C)nc13)[C@H](O)C2` (relative stereo) is 129 °C. The figure for `COC(=O)c1cccc(-c2nc(COc3ccc(CO)cc3OC)c(C)o2)c1` is 141 to 142 °C; for `CC(n1cncn1)C(O)(Cn1cncn1)c1ccc(F)cc1` (stereo not given) it is 103 to 106 °C. Under `Cc1cccc2oc3cc(Cl)ccc3c(=O)c12` stands 111 to 113 °C. For the molecule `CC(C)COC(=O)c1ccc(N)cc1N`, the melting point fell in the range of 54 to 55 °C. The figure for `CC(C)(C)C(=O)c1ccc(C(=O)N(C(=O)c2ccc(C(=O)C(C)(C)C)cc2)C(=O)c2ccccc2C(=O)C(C)(C)C)cc1` is 185 to 188 °C. The molecule `O=CNC(O)C(Cl)(Cl)CCl` (stereo not given) registered a melting point of 105 to 109 °C.

`Cc1c(C(N)=O)c2ccccc2n2c(N3CCCC3)nc(-c3noc(C(C)C)n3)c12` registered a melting point of 173 to 174 °C.

Regarding `COc1ccc(NC(=O)OC2CN3CCC2CC3)cc1` (stereo not given), the melting point was determined as 160 °C.

As for `COC1=C(N=O)C(=O)NC1=Cc1ccccc1`, the melting point came to 172 °C.

`Cc1ccc(S(=O)(=O)OCCc2cccc3c(S(=O)(=O)c4ccccc4)c[nH]c23)cc1`: the melting point fell in the range of 142 to 145 °C. The figure for `O=C(Nc1ccc(Oc2ccnc(NC3CCS(=O)(=O)C3)n2)c2ccccc12)c1cc(F)cc(N2CCOCC2)c1` (stereo not given) is 150 to 151 °C. Under `O=C(O)c1ccccc1N1CCN(CC(O)COc2ccccc2)CC1` (stereo not given) stands 235 to 237 °C; under `O=C(O)CCCCCCc1ncsc1C(=O)O`, 151 to 153 °C. As for `CCOC(=O)CCCOc1cc(C=Cc2ccc3ccc(Br)cc3n2)ccc1Cl`, the melting point was 215 to 220 °C. The figure for `O=c1cc(-c2ccncc2)nc2n1CC(O)CN2` (stereo not given) is 305 to 307 °C; for `Cc1cc(C2=NN(C(=O)OC(C)(C)C)[C@H](C)Cc3cc4c(cc32)OCO4)cc(C)c1[N+](=O)[O-]` it is 222 to 223 °C.

On to `CC(C)(C)c1ccc(C(=O)Nc2ccc(N)cc2)cc1`, for which the melting point was 111 to 113 °C. Consider `O=C(NC/C=C\COc1cc(CN2CCCCC2)ccn1)NC1CCCCC1`, for which the melting point is 131 to 132 °C.

The molecule `N#CC1(Nc2ccc(Cl)c(Cl)c2)CCN(C(=O)c2cc(C(F)(F)F)cc(C(F)(F)F)c2)CC1` displayed a melting point of 195 to 197 °C. The figure for `CC(N1C(=O)C(=O)N(c2ccc(Br)cc2)C1=S)C(C)(C)C` (stereo not given) is 207 to 208 °C; for `COc1ccc(S(=O)(=O)c2ccc(NC(=O)NC34CC5CC(CC(C5)C3)C4)cc2)nn1` it is 252 to 254 °C. Under `CN1C(=O)CCC(=O)N1c1cc(-c2ccnc(Nc3cccc(Cl)c3)n2)ccn1` stands 201 to 204 °C; under `O=C1C(c2nc3c(cc2O)OCO3)c2ccccc2N1Cc1ccc(C(F)(F)F)o1` (stereo not given), 161 to 163 °C; under `COc1ccc2c(c1)CCC2n1cc[nH]c1=S` (stereo not given), 195 to 196 °C. The figure for `NS(=O)(=O)c1nccn1-c1nccs1` is 157 to 162 °C. Take `COc1ccc2cc(-c3ccc(S(C)(=O)=O)cc3)ccc2n1`: the melting point lay within 182 to 184 °C. The figure for `CSc1cc2ccccc2cc1C=O` is 53.5 to 54.5 °C; for `O=[N+]([O-])c1ccc(CCCCCCCCCCCCCCOCCCCCCCCCCCCCCc2ccc([N+](=O)[O-])cc2)cc1` it is 57 to 60 °C; for `c1cc2c3c(c1)NCC3CCC2` (stereo not given) it is 58 to 59 °C. As for `CS(=O)(=O)c1cccc(-n2c(=O)c(CCCc3ccncc3)cc3cccnc32)c1`, the melting point lay within 127 to 131 °C. In the case of `ClCCCOc1ccc(Cl)cc1`, the melting point was in the range of 35 to 36 °C. As to `CC(C)(C)c1nc(Cl)n(-c2c(Cl)cc(Cl)cc2Cl)n1`, the melting point lay within 98 to 98.5 °C. Under `CS(=O)(=O)Nc1ccc2c(c1)C(=O)C(C1CCN(CCc3ccc4nonc4c3)CC1)C2` (stereo not given) stands 214 to 217 °C; under `CCOC(=O)Cc1cc2c(s1)CCN(C(=O)[C@H](Cc1ccccc1)NC(=O)c1ccc(C(=N)N)cc1)C2`, 173 to 175 °C. The figure for `N#CC1=C(c2cccs2)Nc2n[nH]cc2C1c1cccc(Cl)c1Cl` (stereo not given) is 232 °C. The figure for `CCCn1c(=O)c2[nH]cnc2n(-c2ccc(Cl)cc2)c1=O` is 233 to 234 °C; for `CCOC(=O)c1cc(C)c(Cl)nc1Nc1ccccc1` it is 116 to 118 °C. `NC(=O)CCCCCCCCCCCNC(N)=NC(=O)c1nc(Cl)c(N)nc1N` had a melting point of 192 to 194 °C.

Take `NC(Cc1ccccc1)C(O)C(N)Cc1ccccc1` (stereo not given): the melting point is 106 to 107 °C.

`CCCc1nc(NC)n2ncc(C(=O)c3ccccc3Cl)c2n1` had a melting point of 116 to 118 °C. Under `CC(C)OC(=O)Nc1ccsc1` stands 105 to 107 °C. Under `OC(c1ccc(Cl)cc1)c1cccc(Br)c1` (stereo not given) stands 67 to 68 °C.

`CCc1nccn1CCCNC(=O)c1ccc(Cl)cc1` came in with a melting point of 120 to 122 °C. The molecule `O=C(COc1ccc2c(-c3ccccc3F)noc2c1Cl)NO` registered a melting point of 151 °C. `Cc1c(I)ccc2c1C(=O)NS2(=O)=O`: the melting point was 257 to 258 °C. The figure for `CN(C)CC1COc2ccc(NC(=O)c3ccc(-c4ccc(Cl)cc4)cc3)cc2O1` (stereo not given) is 158 to 159 °C; for `CC(CC(C)(C)c1ccccc1)N=C(O)C(Cl)=C(Cl)C(=O)O` (stereo not given) it is 106 to 109 °C; for `COC(=O)COc1ccc2ccc(C(C)=O)c(O)c2c1` it is 133 to 135 °C. `Cc1cc(C)c([N+](=O)[O-])cc1N1CCCCC1=O` displayed a melting point of 134 to 135 °C. The figure for `COc1ccc2c(c1)c(Cc1cc(=O)n(-c3cccc(F)c3)[nH]1)c(C)n2C(=O)c1ccc(Cl)cc1` is 162 to 164 °C; for `CN(C)CCCn1c2c(c3ccccc31)CC(O)CC2` (stereo not given) it is 174 to 176 °C.

`CCCC(O)C(C)C(=O)n1c(=O)oc2ccccc21` (stereo not given) yielded a melting point of 123 to 124 °C. The figure for `COC(=O)Cc1c(Cl)ncnc1N(C)C` is 30 to 32 °C; for `CCc1cc(C(=O)c2ccccc2Cl)c(-n2c(C)nnc2CNC(=O)c2[nH]c3ccccc3c2C)s1` it is 143 to 147 °C; for `O=C(O)C(Br)C(O)c1cccc([N+](=O)[O-])c1` (stereo not given) it is 124 to 125 °C.

`COc1c(O)ccc(C=O)c1[N+](=O)[O-]`: the melting point lay in the range of 136 to 137 °C.

Regarding `CC(C)(C)c1ccc(C(=O)NC(=N)N)cc1`, the melting point is 255 to 258 °C.

What is called melting point is the temperature, or range, at which the solid turns liquid.
